Measured values taken from ChEMBL document CHEMBL1201862, “PubChem BioAssay data set” (2004).
Active and inactive are the calls of the source. For most assays here, no stated cut-off is given here; in the data, actives have a measured EC50 and inactives only a lower limit.

Tests used:
[1] = molecular target: T1, Heat shock factor protein 1 (Mus musculus, UniProt P38532); experiment: HSF1 potentiators in luciferase reporter cells, confirmation, cell-based, NIH3T3, luminescence, dose retest (AID 435004); assay type: functional;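 further: stress induced by proteasome inhibitor MG132 added 30 min after compound; luciferase reporter driven by HSF1 response element in NIH3T3 cells; actives raise luminescence as potentiators of the MG132 stress response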
T1 sequence (P38532 whole entry): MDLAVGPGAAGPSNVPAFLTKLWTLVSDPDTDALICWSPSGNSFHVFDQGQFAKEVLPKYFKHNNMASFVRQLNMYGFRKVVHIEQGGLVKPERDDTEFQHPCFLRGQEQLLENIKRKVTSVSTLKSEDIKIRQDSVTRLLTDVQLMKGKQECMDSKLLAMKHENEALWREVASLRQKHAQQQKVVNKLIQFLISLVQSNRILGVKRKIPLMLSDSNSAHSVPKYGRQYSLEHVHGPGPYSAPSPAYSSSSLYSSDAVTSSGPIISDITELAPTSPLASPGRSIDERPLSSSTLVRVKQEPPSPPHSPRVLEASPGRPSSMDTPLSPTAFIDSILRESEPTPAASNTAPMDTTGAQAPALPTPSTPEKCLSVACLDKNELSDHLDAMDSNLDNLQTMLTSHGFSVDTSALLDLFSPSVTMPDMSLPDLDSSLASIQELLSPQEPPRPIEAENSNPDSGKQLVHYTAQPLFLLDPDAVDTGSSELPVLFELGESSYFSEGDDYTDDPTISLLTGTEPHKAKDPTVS

[2] = molecular target: FAD-linked sulfhydryl oxidase ALR (Homo sapiens, UniProt P55789); experiment: inhibitors of human ALR sulfhydryl oxidase, dose response, biochemical, H2O2 detection, luminescence, cherry-pick (AID 493248)
Protein skinhead-1 = molecular target: T2, Protein skinhead-1 (Caenorhabditis elegans, UniProt P34707); assay type: functional
T2 sequence (P34707 whole entry): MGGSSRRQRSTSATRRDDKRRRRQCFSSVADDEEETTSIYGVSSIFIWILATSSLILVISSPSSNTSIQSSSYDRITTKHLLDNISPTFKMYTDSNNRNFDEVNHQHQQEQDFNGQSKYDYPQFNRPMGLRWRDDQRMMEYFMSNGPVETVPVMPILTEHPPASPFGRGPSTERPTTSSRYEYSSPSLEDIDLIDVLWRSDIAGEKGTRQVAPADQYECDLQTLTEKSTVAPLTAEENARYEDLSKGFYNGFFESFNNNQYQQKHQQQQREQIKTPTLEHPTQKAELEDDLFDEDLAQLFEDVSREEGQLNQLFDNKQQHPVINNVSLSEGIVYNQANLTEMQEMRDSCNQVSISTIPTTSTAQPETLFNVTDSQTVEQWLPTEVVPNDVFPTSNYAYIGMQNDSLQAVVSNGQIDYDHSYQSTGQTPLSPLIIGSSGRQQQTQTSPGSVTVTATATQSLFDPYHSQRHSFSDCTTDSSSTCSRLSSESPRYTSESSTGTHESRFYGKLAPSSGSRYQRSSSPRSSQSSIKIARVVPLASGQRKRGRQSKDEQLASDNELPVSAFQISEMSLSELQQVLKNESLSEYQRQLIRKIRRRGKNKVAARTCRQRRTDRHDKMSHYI

[3] = molecular target: T3, Calpain-2 catalytic subunit (Sus scrofa, UniProt P43367); experiment: pig calpain II inhibitor potency, dose response, biochemical, fluorogenic peptide substrate (AID 1420); assay type: functional
T3 sequence (P43367 whole entry): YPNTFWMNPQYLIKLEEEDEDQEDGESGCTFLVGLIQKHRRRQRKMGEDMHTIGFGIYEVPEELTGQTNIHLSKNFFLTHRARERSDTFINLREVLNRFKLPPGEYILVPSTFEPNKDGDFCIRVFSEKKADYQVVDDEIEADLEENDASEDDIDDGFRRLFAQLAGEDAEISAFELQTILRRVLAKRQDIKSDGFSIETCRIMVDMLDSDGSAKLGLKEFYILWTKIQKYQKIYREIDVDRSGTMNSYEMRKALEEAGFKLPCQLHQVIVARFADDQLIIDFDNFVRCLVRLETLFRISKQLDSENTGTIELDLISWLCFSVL

[4] = molecular target: Luciferin 4-monooxygenase (Photinus pyralis, UniProt P08659); experiment: firefly luciferase enzyme inhibitors, dose response, biochemical, luminescence (AID 1891)
[5] = Luminescence Cell-Based Dose Confirmation HTS to Identify Inhibitors of Platelet Dense Granule Release. [Related pubchem assays: 1663 (Primary HTS), 1678 (Summary of Project)]; assay type: functional
[6] = microbe, parasite or virus in culture; assay type: functional; conditions: Mycobacterium tuberculosis
[7] = Luminescence Cell-Based Dose Confirmation HTS to Identify Activators of 5'UTR Stem-Loop Driven Alpha-Synuclein mRNA Translation in H4 Neuroglioblastoma Cells. [Related pubchem assays: 1829 (Project Summary), 1814 (Primary HTS)]; assay type: functional
[8] = Luminescence Cell-Based Dose Response HTS to Identify Activators of Luciferase Translation or Activity in H4 […] Cells. [Related pubchem assays: 1829 (Project Summary), 1814 (Primary HTS)]; assay type: functional
H4 = experiment: Luminescence Cell-Based Dose Response HTS to Identify Activators of 5'UTR Stem-Loop Driven Prion Protein mRNA Translation in H4 Neuroglioblastoma Cells. [Related pubchem assays: 1829 (Project Summary), 1814 (Primary HTS)]; assay type: functional; conditions: Homo sapiens

Chain of Luciferin 4-monooxygenase (P08659 whole entry): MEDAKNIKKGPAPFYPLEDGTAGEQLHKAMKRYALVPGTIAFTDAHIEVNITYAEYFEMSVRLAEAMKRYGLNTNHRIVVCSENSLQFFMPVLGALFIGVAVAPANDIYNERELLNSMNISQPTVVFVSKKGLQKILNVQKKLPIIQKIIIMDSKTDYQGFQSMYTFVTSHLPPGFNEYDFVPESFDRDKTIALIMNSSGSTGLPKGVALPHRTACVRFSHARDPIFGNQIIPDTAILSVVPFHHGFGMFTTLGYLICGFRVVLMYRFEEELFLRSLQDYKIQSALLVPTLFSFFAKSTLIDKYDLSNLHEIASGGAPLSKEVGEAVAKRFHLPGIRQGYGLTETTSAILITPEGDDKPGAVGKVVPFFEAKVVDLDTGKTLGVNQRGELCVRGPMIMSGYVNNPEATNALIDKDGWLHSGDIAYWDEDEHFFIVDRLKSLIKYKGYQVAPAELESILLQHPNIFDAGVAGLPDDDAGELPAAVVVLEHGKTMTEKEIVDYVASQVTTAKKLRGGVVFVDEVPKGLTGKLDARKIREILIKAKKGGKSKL
Chain of FAD-linked sulfhydryl oxidase ALR (P55789 whole entry): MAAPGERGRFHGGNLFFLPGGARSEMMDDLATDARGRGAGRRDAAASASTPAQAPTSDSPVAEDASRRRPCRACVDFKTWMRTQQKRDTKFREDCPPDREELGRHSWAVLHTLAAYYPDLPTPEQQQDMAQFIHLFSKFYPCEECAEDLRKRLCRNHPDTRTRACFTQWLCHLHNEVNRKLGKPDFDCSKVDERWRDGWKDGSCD

Compound: Cc1ccc(NC2c3ncccc3C(=O)N2C2CCCCC2)cc1 (stereo not given)
- EC50 [1]: > 260 µM (inactive)
- AC50 [2]: 2.07 µM (active)

Compound: O=C(c1ccccc1Br)N1CCN(c2ccccc2)CC1
- EC50 [1]: > 260 µM (inactive)

Compound: Cc1ccc(C)c(NC(=O)/C(C#N)=C/c2ccc[nH]2)c1
- IC50 (Protein skinhead-1): > 100 µM (inactive)

Compound: CC(=O)c1cccc(NC(=O)c2c(F)c(F)c(F)c(F)c2F)c1
- IC50 [3]: 17.2 µM (not active)

Compound: Cc1cccc(NC(=O)CN2CCC(C(=O)c3ccc4c(c3)OCCO4)CC2)c1
- EC50 [4]: > 112 µM (not active)
- EC50 [5]: > 112 µM (not active)

Compound: Cc1ccc(C)n1-c1ccc(C(=O)NN=C2CCCC2)cc1
- EC50 [4]: > 112 µM (not active)
- EC50 [5]: > 112 µM (not active)

Compound: CCOC(=O)Cn1/c(=N/C(=O)CSC(C)=O)sc2ccccc21
- EC50 [4]: > 112 µM (not active)
- EC50 [5]: > 112 µM (not active)

Compound: COc1cccc(-c2noc(-c3ccoc3C)n2)c1
- IC50 (Protein skinhead-1): 86.4 µM (inactive)

Compound: Nc1c(C(=O)OCC2CCCO2)c2nc3ccccc3nc2n1C1CCCC1 (stereo not given)
- CC50 [6]: 38.3 µM (active)

Compound: Cc1ccccc1Nc1nc(N)nc(CSc2ccccc2)n1
- EC50 [1]: 19.1 µM (active)

Compound: CCCc1cc(-c2nnc(S)n2Cc2ccccc2)cs1
- IC50 [3]: 22.1 µM (not active)

Compound: Cn1c(CNc2cccc(Cl)c2)nnc1SCC#N
- EC50 [1]: > 260 µM (inactive)

Compound: O=C(Nc1nccs1)C1CCN(S(=O)(=O)c2ccc(Cl)c(C(F)(F)F)c2)CC1
- EC50 [4]: > 112 µM (not active)
- EC50 [5]: > 112 µM (not active)

Compound: Oc1ccc(N=Nc2n[nH]c(-c3ccc(Cl)cc3)n2)cc1
- EC50 [7]: > 120 µM (not active)
- EC50 [8]: 8.25 µM (active)
- EC50 (H4): > 120 µM (not active)
- CC50 [6]: 28.1 µM (active)

Compound: Cc1nc(NC(=O)c2ccccc2)sc1C1(C)CC(c2ccc(OC(F)(F)F)cc2)=NO1 (stereo not given)
- CC50 [6]: > 40 µM (active)

Compound: COc1ccc(Cc2nnc(NC(=O)c3c(-c4ccccc4)noc3C)s2)cc1
- EC50 [4]: > 112 µM (not active)
- EC50 [5]: > 112 µM (not active)

Compound: COc1cc2cnc(-c3ccccc3)c(-c3ccc(C(F)(F)F)cc3)c2cc1OC
- CC50 [6]: > 40 µM (active)

Compound: CSC(=S)N/N=C/c1ccccc1
- CC50 [6]: > 40 µM (active)

Compound: COc1ccc(/C=C/C(=O)NC(=S)Nc2cc3oc4ccccc4c3cc2OC)cc1
- IC50 [3]: > 50 µM (not active)

Compound: CCCC1CC(C)(c2csc(Nc3ccc(OCC)cc3)n2)OC1=O (stereo not given)
- CC50 [6]: > 40 µM (active)

Compound: COc1ccc(C(=N)NOC(=O)Cc2ccccc2[N+](=O)[O-])cc1
- IC50 [3]: 10.1 µM (not active)
